{
  "source": "patent US11787839B2",
  "about": "“Targeting α2δ-1-bound glutamate receptors for treating diseases and disorders” (Board of Regents, The University of Texas System, priority 2017, dated 2023)",
  "key": {"[1]": {"molecular_target": "T1, NMDARs of spinally projecting PVN neurons (Rattus norvegicus, UniProt P35439+Q00959+Q00960)", "T1 construct": "from tissue; host or cells: rat hypothalamic slices containing the PVN (Sprague-Dawley, WKY, SHR) and synaptosomes made from them", "assay": "Recordings of spinally projecting PVN neurons in rat brain slices (Ang II)", "format": "cell-based", "settings": "losartan 2 μmol/L, pregabalin 20 μmol/L, peptides 1 μmol/L", "source_text": "Retrograde labeling of spinally projecting PVN neurons: Rats or mice were anesthetized with 2-3% isoflurane, and their spinal cords at the T1-T4 level were exposed through dorsal laminectomy. A fluorescent microsphere suspension (FluoSpheres, 0.04 μm; Molecular Probes, Invitrogen, Eugene, Oreg.) was pressure ejected (Nanoject II Microinjectors, Drummond Scientific Company, Broomall, Pa.) bilaterally into the IML region of the spinal cord in six separate 50-nl injections using a glass micropipette (tip diameter, 20-30 μm). […] The wound was closed with sutures after injection. Animals were returned to their cages for 4-7 days, which was sufficient time to permit the tracer to be retrogradely transported to the PVN. The animals were inspected daily for motor activity, signs of infection, and food and water intake.\nBrain slice preparation: Four to seven days after fluorescent tracer injection, the animals were anesthetized with isoflurane and rapidly decapitated. […] Coronal slices (thickness, 300 μm) containing the PVN were cut from the tissue block in the ice-cold aCSF. […] The brain slices were placed in a glass-bottom chamber and continuously perfused with aCSF at 3.0 ml/min at 34° C. maintained by an inline solution heater and temperature controller.\nThe labeled PVN neurons were briefly identified with the aid of epifluorescence illumination, and whole-cell recordings from labeled PVN neurons were performed under differential interference contrast optics on an upright microscope (BX50 WI; Olympus Optical, Tokyo, Japan). Recordings of postsynaptic currents began 5 min after the whole-cell access was established and the current reached a steady state.\nSignals were processed with an […] amplifier (Axon Instruments, Foster City, Calif.). A liquid junction potential of 15 mV (for the potassium gluconate pipette solution) was corrected during off-line analysis.\nPostsynaptic NMDAR currents were elicited by puff application of 100 μmol/L NMDA to the recorded neuron using a positive pressure system (4 p.s.i., 50 ms; Toohey Company, Fairfield, N.J.). The tip of the puff pipette was placed 150 μm from the recorded neuron. […] The NMDAR current data presented in the manuscript were the average of 3 consecutive currents elicited by repeated puff NMDA. The neuron was discarded if the current was not stable.\nAng II, losartan, and NMDA were obtained from Sigma (St. Louis, Mo.). The α2δ-1Tat peptide and scrambled control peptide were synthesized by Bio Basic Inc. (Markham, Ontario, Canada) and validated by liquid chromatography and mass spectrometry. […] All drugs were prepared immediately before the experiments and applied to the slice chamber. The brain slices were first pretreated with Ang II, losartan, α2δ-1Tat peptide, or control peptide in the slice incubation chamber before recording. For electrophysiological recording, the treatment agents were immediately removed and the brain slice transferred to a separate recording chamber."}, "[2]": {"tested_on": "rats treated with the Cacna2d1 vector", "assay": "Withdrawal thresholds in rats overexpressing Cacna2d1 (lentiviral vector)", "format": "in vivo, rat", "settings": "Cacna2d1 vector rats; AP5, peptide, gabapentin intrathecal; memantine systemic"}, "[3]": {"tested_on": "presynaptic NMDARs of spinal dorsal horn neurons", "assay": "Spinal cord slice recordings, morphine-treated WT and Cacna2d1 KO mice", "settings": "WT mice"}, "morphine-treated rats": {"tested_on": "morphine-treated rats", "assay": "Opioid-induced hyperalgesia and analgesic tolerance in rats"}, "WT and Cacna2d1 KO mice": {"tested_on": "WT and Cacna2d1 KO mice", "assay": "Opioid-induced hyperalgesia and analgesic tolerance in WT and Cacna2d1 KO mice"}, "[4]": {"molecular_target": "presynaptic NMDARs of spinal lamina II neurons (Rattus norvegicus, UniProt P35439+Q00959+Q00960)", "sequence (Q00959 20-1464 limits assumed, other chains not shown)": "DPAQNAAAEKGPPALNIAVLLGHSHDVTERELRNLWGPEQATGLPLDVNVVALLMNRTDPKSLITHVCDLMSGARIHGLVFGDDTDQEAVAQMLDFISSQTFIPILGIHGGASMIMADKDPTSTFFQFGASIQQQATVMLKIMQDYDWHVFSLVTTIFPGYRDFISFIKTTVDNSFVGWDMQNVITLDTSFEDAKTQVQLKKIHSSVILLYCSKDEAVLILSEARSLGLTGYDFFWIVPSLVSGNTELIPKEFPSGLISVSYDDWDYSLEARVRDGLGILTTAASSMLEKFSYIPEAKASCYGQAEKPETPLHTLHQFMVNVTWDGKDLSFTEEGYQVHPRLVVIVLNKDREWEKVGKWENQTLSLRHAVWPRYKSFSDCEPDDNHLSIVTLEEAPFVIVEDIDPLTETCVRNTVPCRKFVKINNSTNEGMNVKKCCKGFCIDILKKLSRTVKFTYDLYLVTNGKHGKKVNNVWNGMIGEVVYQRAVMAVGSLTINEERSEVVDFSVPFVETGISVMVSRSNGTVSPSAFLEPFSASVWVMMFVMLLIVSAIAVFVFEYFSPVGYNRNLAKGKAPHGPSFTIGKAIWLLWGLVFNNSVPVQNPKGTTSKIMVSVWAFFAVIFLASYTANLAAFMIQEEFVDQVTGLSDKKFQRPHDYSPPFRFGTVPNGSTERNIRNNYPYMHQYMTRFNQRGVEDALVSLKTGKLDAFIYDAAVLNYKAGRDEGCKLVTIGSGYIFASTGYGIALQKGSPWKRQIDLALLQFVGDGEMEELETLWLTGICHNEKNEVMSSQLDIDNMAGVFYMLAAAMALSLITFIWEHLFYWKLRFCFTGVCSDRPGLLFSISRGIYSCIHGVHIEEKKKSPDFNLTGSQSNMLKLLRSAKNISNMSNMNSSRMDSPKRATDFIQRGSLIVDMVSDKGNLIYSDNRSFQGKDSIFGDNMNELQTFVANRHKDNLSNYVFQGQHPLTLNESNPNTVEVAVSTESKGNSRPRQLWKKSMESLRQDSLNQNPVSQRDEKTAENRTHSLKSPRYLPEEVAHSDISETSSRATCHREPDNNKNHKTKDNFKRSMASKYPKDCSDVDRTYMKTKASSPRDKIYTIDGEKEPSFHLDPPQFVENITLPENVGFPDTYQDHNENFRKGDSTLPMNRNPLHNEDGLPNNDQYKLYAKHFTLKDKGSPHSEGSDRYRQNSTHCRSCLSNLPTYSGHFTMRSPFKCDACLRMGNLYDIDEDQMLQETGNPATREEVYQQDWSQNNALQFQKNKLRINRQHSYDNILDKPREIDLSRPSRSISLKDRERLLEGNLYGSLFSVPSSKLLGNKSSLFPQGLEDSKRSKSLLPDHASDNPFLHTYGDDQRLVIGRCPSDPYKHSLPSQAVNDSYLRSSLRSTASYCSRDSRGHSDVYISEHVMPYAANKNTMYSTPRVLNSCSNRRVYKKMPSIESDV", "sequence (Q00960 27-1482, other chains not shown)": "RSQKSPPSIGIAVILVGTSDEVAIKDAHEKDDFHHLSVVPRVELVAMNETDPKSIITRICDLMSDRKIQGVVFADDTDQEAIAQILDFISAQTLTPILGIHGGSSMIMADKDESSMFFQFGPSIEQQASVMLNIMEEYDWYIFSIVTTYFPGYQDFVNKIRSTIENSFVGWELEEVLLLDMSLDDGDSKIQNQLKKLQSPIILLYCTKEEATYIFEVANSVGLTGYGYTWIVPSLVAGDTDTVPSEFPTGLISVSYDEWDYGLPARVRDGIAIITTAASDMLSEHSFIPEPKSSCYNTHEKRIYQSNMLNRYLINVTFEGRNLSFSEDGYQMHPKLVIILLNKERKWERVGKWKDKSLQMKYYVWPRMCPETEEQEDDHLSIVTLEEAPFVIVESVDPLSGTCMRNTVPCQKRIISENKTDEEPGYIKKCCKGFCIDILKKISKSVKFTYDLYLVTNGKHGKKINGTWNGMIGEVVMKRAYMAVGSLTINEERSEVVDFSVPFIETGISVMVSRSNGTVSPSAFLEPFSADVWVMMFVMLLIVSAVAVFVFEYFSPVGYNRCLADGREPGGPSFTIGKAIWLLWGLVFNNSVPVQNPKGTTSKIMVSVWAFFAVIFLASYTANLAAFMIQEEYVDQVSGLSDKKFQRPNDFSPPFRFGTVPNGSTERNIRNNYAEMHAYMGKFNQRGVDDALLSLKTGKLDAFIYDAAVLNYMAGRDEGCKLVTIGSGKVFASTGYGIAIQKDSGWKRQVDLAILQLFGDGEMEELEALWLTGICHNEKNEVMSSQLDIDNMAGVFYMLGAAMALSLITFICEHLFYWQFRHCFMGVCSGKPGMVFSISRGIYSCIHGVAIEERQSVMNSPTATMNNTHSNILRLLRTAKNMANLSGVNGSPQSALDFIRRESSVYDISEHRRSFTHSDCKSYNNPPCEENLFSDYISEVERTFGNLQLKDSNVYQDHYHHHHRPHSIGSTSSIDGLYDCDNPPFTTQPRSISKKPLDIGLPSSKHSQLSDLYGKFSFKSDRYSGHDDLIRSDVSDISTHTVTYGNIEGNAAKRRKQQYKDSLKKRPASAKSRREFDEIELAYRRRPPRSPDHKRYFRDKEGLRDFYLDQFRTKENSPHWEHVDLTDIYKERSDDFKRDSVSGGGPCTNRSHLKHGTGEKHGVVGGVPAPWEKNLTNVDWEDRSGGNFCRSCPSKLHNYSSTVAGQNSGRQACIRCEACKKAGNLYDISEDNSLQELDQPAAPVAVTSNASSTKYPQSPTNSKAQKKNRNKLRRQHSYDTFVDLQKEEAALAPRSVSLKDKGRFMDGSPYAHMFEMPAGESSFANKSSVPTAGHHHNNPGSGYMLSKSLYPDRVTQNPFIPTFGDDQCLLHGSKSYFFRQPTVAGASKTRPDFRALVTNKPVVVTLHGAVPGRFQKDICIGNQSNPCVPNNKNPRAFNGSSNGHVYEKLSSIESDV"}, "paclitaxel-treated rats": {"tested_on": "paclitaxel-treated rats", "assay": "Paclitaxel-induced pain hypersensitivity in rats", "format": "in vivo, rat", "settings": "intrathecal 5 μg pregabalin, 1 μg peptides", "procedure": "To induce neuropathic pain, rats and mice were intraperitoneally injected with paclitaxel (2 mg/kg; TEVA Pharmaceuticals, North Wales, Pa.) every 2 days for a total of 4 injections (days 1, 3, 5 and 7; total dose, 8 mg/kg), as described previously (Polomano et al., 2001). Animals in the control group were intraperitoneally injected with the vehicle (Cremophor EL/ethanol, 1:1) on the same 4 days. The presence of tactile allodynia was confirmed 10 to 12 days after drug treatment. Intrathecal catheters were implanted in some paclitaxel-treated rats during isoflurane-induced anesthesia. Briefly, a small puncture was made in the atlanto-occipital membrane of the cisterna magna and inserted a PE-10 catheter with the caudal tip reaching the lumbar enlargement of the spinal cord (Chen et al., 2014a; Xie et al., 2016).\nBehavioral assessment of nociception: To measure tactile allodynia, mice or rats were individually placed on a mesh floor within a suspended chamber. […]\nTo quantify the mechanical nociceptive threshold in rats, the paw pressure (Randall-Selitto) test was conducted on the left hindpaw using an analgesiometer (Ugo Basile, Varese, Italy). […] When the rat withdrew its paw or vocalized, the pedal was immediately released, and the withdrawal threshold was recorded (Chen et al., 2014a). […]\nTo assess the thermal sensitivity of rats, the were placed individually on the glass surface of a thermal testing apparatus (IITC Life Sciences, Woodland Hills, Calif.). […] The paw withdrawal latency was recorded with a timer, and the hindpaw was tested twice to obtain an average time. […] After the threshold temperature was recorded, the mice were immediately removed from the plate. The heat threshold measurement was repeated 30 min later, and the average of the 2 recorded temperatures was considered as the heat threshold. The cold threshold was measured by cooling the plate from 30° C. at a rate of 6° C./min until nocifensive behaviors were observed. […]"}, "[5]": {"settings": "daily morphine in vehicle- or control peptide-treated rats"}, "[6]": {"settings": "WT mice, morphine 10 mg/kg twice a day, 8 days"}, "[7]": {"settings": "paclitaxel-treated rats, AP5 50 μM, pregabalin 20 μM, peptides 1 μM"}, "[8]": {"settings": "vehicle-treated rats, AP5 50 μM, pregabalin 20 μM, peptides 1 μM"}},
  "data": [
    {"smiles": "CCCCc1nc(Cl)c(CO)n1Cc1ccc(-c2ccccc2-c2nn[nH]n2)cc1", "note": "[losartan]", "values": [
      {"measurement": "effect of Ang II on mEPSC frequency in pretreated slices", "setting": "[1]", "value": "completely blocked"},
      {"measurement": "effect of Ang II on puff NMDA currents in pretreated slices", "setting": "[1]; 30 min", "value": "abolished"}
    ]},
    {"smiles": "CC12CC3CC(C)(C1)CC(N)(C3)C2", "note": "[memantine]", "values": [
      {"measurement": "pain hypersensitivity induced by Cacna2d1 overexpression (tactile and pressure withdrawal thresholds)", "setting": "[2]", "value": "readily reversed"}
    ]},
    {"smiles": "CN1CC[C@]23c4c5ccc(O)c4O[C@H]2[C@@H](O)C=C[C@H]3[C@H]1C5.O=S(=O)(O)O", "note": "[morphine, morphine sulfate]", "values": [
      {"measurement": "amplitude of monosynaptic EPSCs evoked from the dorsal root", "setting": "[3]; chronic morphine", "value": "markedly increased"},
      {"measurement": "NMDAR-mediated frequency of mEPSCs of spinal dorsal horn neurons", "setting": "[3]; morphine 10 mg/kg twice a day for 8 day", "value": "significantly increased"},
      {"measurement": "effect of 5 mg/kg morphine on the withdrawal thresholds", "setting": "morphine-treated rats; by day 6, vehicle- or control peptide-treated rats", "value": "failed to produce a significant effect"},
      {"measurement": "anti-nociceptive effect of morphine", "setting": "morphine-treated rats; [5]", "value": "gradual decrease"},
      {"measurement": "baseline withdrawal thresholds (mechanical and thermal hyperalgesia)", "setting": "morphine-treated rats; [5]", "value": "gradual reduction"},
      {"measurement": "anti-nociceptive effect of morphine at the end of 8-day treatment", "setting": "WT and Cacna2d1 KO mice; Cacna2d1 KO mice", "value": "largely preserved"},
      {"measurement": "baseline withdrawal threshold", "setting": "WT and Cacna2d1 KO mice; Cacna2d1 KO mice, daily morphine", "value": "did not significantly affect"},
      {"measurement": "anti-nociceptive effect of morphine", "setting": "WT and Cacna2d1 KO mice; [6]", "value": "diminished"},
      {"measurement": "baseline withdrawal thresholds to noxious pressure and heat", "setting": "WT and Cacna2d1 KO mice; [6]", "value": "gradually reduced"}
    ]},
    {"smiles": "CC(C)C[C@H](CN)CC(=O)O", "note": "[pregabalin]", "values": [
      {"measurement": "reduced PPR of evoked EPSCs", "setting": "[4]; paclitaxel-treated rats", "value": "completely normalized"},
      {"measurement": "increased amplitude of evoked monosynaptic EPSCs", "setting": "[4]; [7]", "value": "returned the amplitude of evoked monosynaptic EPSCs of lamina II neurons to the baseline level"},
      {"measurement": "increased frequency of mEPSCs of lamina II neurons", "setting": "[4]; [7]", "value": "completely normalized"},
      {"measurement": "PPR of evoked EPSCs", "setting": "[4]; vehicle-treated rats", "value": "had no effect"},
      {"measurement": "amplitude of evoked monosynaptic EPSCs", "setting": "[4]; [8]", "value": "had no effect"},
      {"measurement": "frequency of mEPSCs of lamina II neurons", "setting": "[4]; [8]", "value": "had no effect"},
      {"measurement": "paclitaxel-induced pain hypersensitivity (tactile allodynia, mechanical and thermal hyperalgesia)", "setting": "paclitaxel-treated rats", "value": "readily reversed"}
    ]}
  ]
}
